Test results taken from patent US7642367B2, “Diamino-functional chalcones” (Lica Pharmaceuticals A/S, priority 2002, dated 2010).
Converted amounts (≈) assume the structure as drawn.

What was measured:
[1] = tested on: dihydroorotate dehydrogenase (DHODH); assay: DHODH assay; type: biochemical; conditions: test concentration not given
Experimental: 100 μl chalcone or 0.1 M Tris-HCl pH 8.0 is added to a well in a 96-wells microtiter plate. Then 50 μl enzyme dilution is added. The microtiter plate is placed in the Powerwavex340 and the enzymatic reactions starts when adding 100 μl assay mixture. The reaction are measured every 20 sec. for 10 min. The samples with chalcones are compared with the samples with 0.1 M Tris-HCl pH 8.0 and the percent inhibition is calculated.
Enzyme dilution: The solution of recombinant purified enzyme is dissolved in 0.1 M Tris-HCl pH 8 to give an initial velocity of 0.04-0.05 ΔA/min.
2,6-dichlorophenolindophenol (DCIP)-stock solution: 40 mg DCIP and 10 ml 99% Ethanol are mixed for 10 min at RT. Then 100 μl 1.0 M Tris-HCl pH 8 and milliQ H20 are added to a final volume of 100 ml. The A600 of the DCIP-stock solution are measured in a microtiter plate on the Powerwavex340 (Bio-Tek instruments, Inc.)
[…]-stock solution: 25 mM dihydroorotate stock-solution is prepared by first dissolving in the same amount of mol NaOH and then miliQ H20 is added to the final volume.
Assay mix (10 ml solution): 600 μl of DHODH-stock solution and X ml (depending on the A600 value of stock-solution) DCIP to a final A600=2.5 are mixed. Then 0.1 M Tris-HCl pH 8.0 are added to a final volume of 10 ml.
Preparation of compound solution: A 10 mM stock-solution of compound (e.g. a chalcone derivative) is made in dimethylsulfoxid (DMSO). The compound is then diluted in 0.1 M Tris-HCl pH 8 to the test concentrations. The final DMSO concentration in the sample is 10%

non-fastidious bacteria = assay: Activity against non-fastidious bacteria (panel); conditions: for activity against Gram-positive non-fastidious bacteria: pathogenic Gram-positive bacteria
[2] = tested on: Streptococcus pneumoniae #998 (clinical isolate); assay: MIC determination in broth microdilution assay; conditions: F: Streptococcus pneumoniae #998; NA: no activity
Eschericia coli ESS = assay: MIC determination in broth microdilution assay; conditions: for MIC: H: Eschericia coli ESS, NA: no activity
[3] = Determination of metabolic stability (liver microsomes); type: in vitro ADME, Wistar rat; conditions: for Metabolic turn-over in vitro: rat liver microsomes, 20 μM, 15 min at 37° C.
Experimental: incubations were performed with Wistar rat liver microsomes (0.25 mg/ml) in 2% sodium bicarbonate solution. NADP (0.13 mg/ml), glucose-6-phosphate (0.63 mg/ml) and glucose-6-phosophate dehydrogenase (0.38 units/ml) were used as NADPH generation system and UDPGA (0.48 mg/ml) was added to include the phase II reaction, glucuronic acid conjugation, in the assay. After 5 minutes of pre-incubation the reaction was started by addition of the test article to give a final concentration of 20 μM. Samples were incubated for 15 min at 37° C. and the reactions were terminated by addition of equal volumes of acetonitrile. Blank incubations were performed at the same concentration but without addition of microsomes. Both blank and microsome-containing samples were made in replicats of three. Prior to analysis samples were centrifuged for 10 min. at 3500 rpm, HPLC system:
Initial conditions were 40% mobile phase A (acetonitrile) and 60% mobile phase B (10 mM ammonium acetate pH 9.5). During the first 20 minutes, the mobile phase was changed via a linear gradient to 90% A and 10% B. This was followed by a 5 minutes linear gradient to initial conditions, which were maintained for 5 min. The flow rate was 0.20 ml/min and injection volume 10 μl.

[4] = tested on: Eschericia coli ATCC25922; assay: MIC determination in broth microdilution assay; conditions: for MIC: G: Eschericia coli ATCC25922, NA: no activity
[5] = tested on: Staphylococcus aureus ATCC29213; assay: MIC determination in broth microdilution assay; conditions: A: Staphylococcus aureus ATCC29213; NA: no activity
[6] = tested on: Staphylococcus intermedius #2357 (clinical isolate); assay: MIC determination in broth microdilution assay; conditions: C: Staphylococcus intermedius #2357; NA: no activity
[7] = tested on: Enterococcus faecalis ATCC29212; assay: MIC determination in broth microdilution assay; conditions: D: Enterococcus faecalis ATCC29212; NA: no activity
[8] = tested on: Enterococcus faecium #17501 (vancomycin-resistant clinical isolate); assay: MIC determination in broth microdilution assay; conditions: E: Enterococcus faecium #17501 (vancomycin-resistant); NA: no activity
[9] = tested on: Staphylococcus aureus ATCC33591 (resistant to methicillin); assay: MIC determination in broth microdilution assay; conditions: B: Staphylococcus aureus ATCC33591 (resistant to methicillin); NA: no activity
S. aureus ATCC29213 = assay: Killing curve (time-kill) / broth macrodilution MIC; type: cell-based, Staphylococcus aureus; conditions: for bactericidal or bacteriostatic (time-kill curve): S. aureus ATCC29213, concentrations above the MIC
[10] = tested on: Plasmodium falciparum 3D7; assay: Plasmodium falciparum assay (3H-phenylalanine labelling); type: cell-based; conditions: for IC50: Plasmodium falciparum 3D7 (Table 2), read-out: IC50
[11] = tested on: Bacteroides fragilis, Clostridium perfringens, Clostridium difficele; type: cell-based; conditions: single concentration of compound (100 μM)
L. major promastigotes = assay: Leishmania promastigote assay (3H-thymidine); conditions: L. major

Row | Structure (SMILES) | Inhibition of DHODH [1] | MIC [2] | MIC (Eschericia coli ESS) | MIC [5] | MIC [6] | MIC [7] | MIC [8] | MIC [9] | also measured
1 | COc1ccc(C(=O)/C=C/c2ccccc2)cc1 [4′MC, 4′methoxy chalcone, reference compound] | 7% | – | – | – | – | – | – | – | activity against Gram-positive non-fastidious bacteria (non-fastidious bacteria): no antibacterial effect at all
2 | C=CC(C)(C)c1cc(/C=C/C(=O)c2ccc(O)cc2)c(OC)cc1O [LicA, Licochalcone A] | 25% | 75.0 µM (≈ 25.4 µg/mL) | 300.0 µM (≈ 102 µg/mL) | – | – | – | – | – | turn-over in vitro [3]: 100%; Metabolic turn-over in vitro [3]: 100%; activity against Gram-positive non-fastidious bacteria (non-fastidious bacteria): moderate bactericidal activity; activity against Escherichia coli (non-fastidious bacteria; prototype pathogenic Gram-negative bacterium): only modest or no activity
3 | CN(C)CCN(C)c1cccc(C(=O)/C=C/c2ccc(Br)cc2F)c1 [B018, (E)-3-(4-Bromo-2-fluoro-phenyl)-1-{3-[(2-dimethylamino-ethyl)-methyl-amino]-phenyl}-propenone] | 22% | – | – | – | – | – | – | – | –
4 | CN(C)CCN(C)c1cccc(C(=O)/C=C/c2ccc(Cl)cc2Cl)c1 [B015, (E)-3-(2,4-Dichloro-phenyl)-1-{3-[(2-dimethylamino-ethyl)-methyl-amino]-phenyl}-propenone] | 25% | – | – | – | – | – | – | – | –
5 | COc1ccc(C(=O)/C=C/c2cc(-c3cc(C)cc(C)c3)ccc2N2CCNCC2)c(CN(C)C)c1 [B117, (E)-1-(2-Dimethylaminomethyl-4-methoxy-phenyl)-3-(3′,5′-dimethyl-4-piperazin-1-yl-biphenyl-3-yl)-propenone] | – | – | 4.7 µM (≈ 2.27 µg/mL) | 4.7 µM (≈ 2.27 µg/mL) | 9.4 µM (≈ 4.55 µg/mL) | 4.7 µM (≈ 2.27 µg/mL) | 4.7 µM (≈ 2.27 µg/mL) | 4.7 µM (≈ 2.27 µg/mL) | MIC [4]: 18.8 µM (≈ 9.09 µg/mL)
6 | COc1ccc(C(=O)/C=C/c2cc(-c3ccccc3OC)ccc2N2CCCN(C)CC2)c(F)c1 [B143, (E)-1-(2-Fluoro-4-methoxy-phenyl)-3-[2′-methoxy-4-(4-methyl-[1,4]diazepan-1-yl)-biphenyl-3-yl]-propenone] | – | – | – | – | – | – | – | – | MIC (time-kill curve figure) (S. aureus ATCC29213; S. aureus ATCC29213): 9.4 µM (≈ 4.46 µg/mL); bactericidal or bacteriostatic (time-kill curve) (S. aureus ATCC29213): bactericidal
7 | CN(C)CCN(C)c1cc(Br)cc(/C=C/C(=O)c2ccccc2CN(C)C)c1 [B118, (E)-3-{3-Bromo-5-[(2-dimethylamino-ethyl)-methyl-amino]-phenyl}-1-(2-dimethylaminomethyl-phenyl)-propenone] | – | – | – | – | – | – | – | – | times more potent than LicA ([10]; Plasmodium falciparum, dose-response curve FIG. 6): 40
8 | Cc1ccccc1-c1ccc(N(C)CCCN(C)C)c(/C=C/C(=O)c2ccccc2CN(C)C)c1 [B147, (E)-1-(2-Dimethylaminomethyl-phenyl)-3-{4-[(3-dimethylamino-propyl)-methyl-amino]-2′-methyl-biphenyl-3-yl}-propenone] | – | – | – | – | – | – | – | – | IC50 [10]: 600 nM
9 | Cc1ccccc1-c1ccc(N2CCN(C)CC2)c(/C=C/C(=O)c2cccc(NC(=O)CN(C)C)c2)c1 [B211, 2-Dimethylamino-N-(3-{3-[2′-methyl-4-(4-methyl-piperazin-1-yl)-biphenyl-3-yl]-(E)-acryloyl}-phenyl)-acetamide] | – | – | – | – | – | – | – | – | IC50 [10]: 700 nM
10 | Cc1cc(C)cc(-c2ccc(N3CCN(C)CC3)c(/C=C/C(=O)c3ccccc3N)c2)c1 [B115, (E)-1-(2-Amino-phenyl)-3-[3′,5′-dimethyl-4-(4-methyl-piperazin-1-yl)-biphenyl-3-yl]-propenone] | – | 9.4 µM (≈ 4 µg/mL) | 9.4 µM (≈ 4 µg/mL) | 4.7 µM (≈ 2 µg/mL) | 4.7 µM (≈ 2 µg/mL) | 4.7 µM (≈ 2 µg/mL) | 4.7 µM (≈ 2 µg/mL) | 4.7 µM (≈ 2 µg/mL) | Metabolic turn-over in vitro [3]: 0%; activity against Gram-positive non-fastidious bacteria (non-fastidious bacteria): increased potency
11 | CCCCN(CCCC)c1cccc(/C=C/C(=O)c2ccccc2NCCN(C)C)c1 [B041, (E)-3-(3-Dibutylamino-phenyl)-1-[2-(2-dimethylamino-ethylamino)-phenyl]-propenone] | – | 18.8 µM (≈ 7.93 µg/mL) | 300.0 µM (≈ 126 µg/mL) | 4.7 µM (≈ 1.98 µg/mL) | 9.4 µM (≈ 3.96 µg/mL) | 9.4 µM (≈ 3.96 µg/mL) | 9.4 µM (≈ 3.96 µg/mL) | 4.7 µM (≈ 1.98 µg/mL) | MIC (time-kill curve figure) (S. aureus ATCC29213; S. aureus ATCC29213): 9.4 µM (≈ 3.96 µg/mL); dependence of the bactericidal action (S. aureus ATCC29213; S. aureus ATCC29213): primarily dependent on incubation time; bactericidal or bacteriostatic (time-kill curve) (S. aureus ATCC29213): bactericidal; activity against anaerobic bacteria [11]: activity against all microorganisms within the test panel
12 | COc1ccc(C(=O)/C=C/c2cc(-c3cc(C)cc(C)c3)ccc2N2CCN(C)CC2)c(CN(C)C)c1 [B102, (E)-1-(2-Dimethylaminomethyl-4-methoxy-phenyl)-3-[3′,5′-dimethyl-4-(4-methyl-piperazin-1-yl)-biphenyl-3-yl]-propenone] | – | 4.7 µM (≈ 2.34 µg/mL) | 4.7 µM (≈ 2.34 µg/mL) | 4.7 µM (≈ 2.34 µg/mL) | 18.8 µM (≈ 9.36 µg/mL) | 9.4 µM (≈ 4.68 µg/mL) | 9.4 µM (≈ 4.68 µg/mL) | 9.4 µM (≈ 4.68 µg/mL) | MIC [4]: 37.5 µM (≈ 18.7 µg/mL); activity against Gram-positive non-fastidious bacteria (non-fastidious bacteria): increased potency
13 | Cc1cc(C)cc(-c2ccc(N3CCNCC3)c(/C=C/C(=O)c3cccc(NCCN(C)C)c3)c2)c1 [B116, (E)-1-[3-(2-Dimethylamino-ethylamino)-phenyl]-3-(3′,5′-dimethyl-4-piperazin-1-yl-biphenyl-3-yl)-propenone] | – | 4.7 µM (≈ 2.27 µg/mL) | 4.7 µM (≈ 2.27 µg/mL) | 2.4 µM (≈ 1.16 µg/mL) | 4.7 µM (≈ 2.27 µg/mL) | 4.7 µM (≈ 2.27 µg/mL) | 4.7 µM (≈ 2.27 µg/mL) | 4.7 µM (≈ 2.27 µg/mL) | activity against E. coli ATCC25922 [4]: high activity; MIC [4]: 4.7 µM (≈ 2.27 µg/mL); activity against ESS strain of E. coli (Eschericia coli ESS): high activity
14 | CN(C)CCN(C)c1cccc(C(=O)/C=C/c2cc(F)ccc2F)c1 [B017, (E)-3-(2,5-Difluoro-phenyl)-1-{3-[(2-dimethylamino-ethyl)-methyl-amino]-phenyl}-propenone] | 23% | – | – | – | – | – | – | – | –
15 | COc1ccc(C(=O)/C=C/c2ccccc2N(C)CCN(C)C)c(F)c1 [B058, (E)-3-{2-[(2-Dimethylamino-ethyl)-methyl-amino]-phenyl}-1-(2-fluoro-4-methoxy-phenyl)-propenone] | 17% | – | – | – | – | – | – | – | –
16 | Cc1ccccc1-c1ccc(N2CCN(C)CC2)c(/C=C/C(=O)c2ccc(O)c(CN(C)C)c2)c1 [B208, (E)-1-(3-Dimethylaminomethyl-4-hydroxy-phenyl)-3-[2′-methyl-4-(4-methyl-piperazin-1-yl)-biphenyl-3-yl]-propenone] | – | – | – | – | – | – | – | – | IC50 (L. major promastigotes): 1100 nM; IC50 [10]: 400 nM
